These results are taken from patent US7468439B2, “Alkylene bridged sultam compounds useful as modulators of nuclear hormone receptor function” (Bristol-Myers Squibb Company, priority 2006, dated 2008).

Data set [1] in a line: stability of the isolated material on storage. The class given is physicochemical.
Data set [2] can be described thus: serum T and DHT concentrations after subcutaneous injection. The conditions noted are these: over 24 hours.
The target in another data set is T1, AR (Rattus norvegicus, UniProt P15207).
T1 sequence (P15207 1-902): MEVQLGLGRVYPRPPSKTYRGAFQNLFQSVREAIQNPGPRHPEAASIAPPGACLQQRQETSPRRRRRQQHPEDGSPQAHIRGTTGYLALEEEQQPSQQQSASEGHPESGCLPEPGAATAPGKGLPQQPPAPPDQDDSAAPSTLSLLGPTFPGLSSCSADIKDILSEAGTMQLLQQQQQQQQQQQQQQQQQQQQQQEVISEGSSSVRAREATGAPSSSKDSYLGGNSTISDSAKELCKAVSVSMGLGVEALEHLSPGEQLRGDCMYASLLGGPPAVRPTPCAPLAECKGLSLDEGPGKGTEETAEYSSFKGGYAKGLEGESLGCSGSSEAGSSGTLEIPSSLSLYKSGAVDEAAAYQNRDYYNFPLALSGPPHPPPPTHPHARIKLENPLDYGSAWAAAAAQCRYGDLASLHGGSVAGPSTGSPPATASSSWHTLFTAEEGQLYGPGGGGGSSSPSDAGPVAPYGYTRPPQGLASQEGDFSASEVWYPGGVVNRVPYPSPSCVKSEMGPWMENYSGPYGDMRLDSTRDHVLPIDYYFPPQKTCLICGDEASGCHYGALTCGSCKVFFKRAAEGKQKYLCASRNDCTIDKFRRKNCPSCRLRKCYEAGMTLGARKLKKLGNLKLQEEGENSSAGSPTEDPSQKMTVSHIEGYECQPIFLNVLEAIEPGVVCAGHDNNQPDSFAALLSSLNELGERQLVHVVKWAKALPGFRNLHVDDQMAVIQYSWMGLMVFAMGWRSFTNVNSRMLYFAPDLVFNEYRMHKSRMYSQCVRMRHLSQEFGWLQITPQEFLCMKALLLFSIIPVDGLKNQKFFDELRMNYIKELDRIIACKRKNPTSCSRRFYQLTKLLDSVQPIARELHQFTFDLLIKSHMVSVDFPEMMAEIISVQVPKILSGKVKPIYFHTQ

For a further data set, the target named is wild type AR. The conditions noted are these: read-out: Kd for [^3H]-DHT; MDA 453 cells (wild type AR), saturation analysis, Scatchard. Here is the method: For the saturation analysis, the difference between the total binding and the non-specific binding, is defined as specific binding.
Two replicates are used for each sample. After 4 hours at 37° C., cells are washed, harvested, and counted as described above. […] The K1 values are determined by application of the Cheng-Prusoff equation to the IC50 values, where:
[formula] After correcting for non-specific binding, IC50 values are determined. […] Murine Breast Cell Proliferation Assay

The term Kd denotes the constant that tells how readily two partners part at equilibrium.

As to `N#Cc1ccc(N2C[C@H]3[C@H]4CC[C@H](C4)[C@@]3(COS(=O)(=O)C(F)(F)F)S2(=O)=O)cc1C(F)(F)F` [Example 61, ((1R,2R,6R,7S)-4-(4-cyano-3-(trifluoromethyl)phenyl)-3,3-dioxido-3-thia-4-azatricyclo[5.2.1.0^2,6]dec-2-yl)methyl trifluoromethanesulfonate], in data set [1] (under an inert atmosphere, unpurified material), the stability result is reported as “stable for several weeks under an inert atmosphere”.

As to `N#Cc1ccc(N2C[C@H]3[C@H]4CC[C@H](C4)[C@@]3(CN=[N+]=[N-])S2(=O)=O)cc1C(F)(F)F` [Example 65, 4-((1R,2R,6R,7S)-2-(azidomethyl)-3,3-dioxido-3-thia-4-azatricyclo[5.2.1.0^2,6]dec-4-yl)-2-(trifluoromethyl)benzonitrile], in data set [1] (ambient conditions), the stability entry is on record as “prone to decomposition under ambient conditions”. On to `C[C@]12CC[C@H]3[C@@H](CCC4=CC(=O)CC[C@@]43C)[C@@H]1CC[C@@H]2O` [T, testosterone], for which the “course of serum concentrations of T and DHT” value in data set [2] is recorded as “decline very rapidly”. Turning to `CCC(=O)O[C@H]1CC[C@H]2[C@@H]3CCC4=CC(=O)CC[C@]4(C)[C@H]3CC[C@]12C` [TP, testosterone propionate], on AR (higher potency than free T), the “potency relative to free T” value was 10-30 fold. The same compound yielded an ED80 at AR (immature castrated rat model, weights of VP and SV) of 0.1 mg. Besides, the “EC50 (increase in organ weight, VP and SV)” value at AR (immature castrated rats, dosing for 3 days) is recorded as roughly 0.03 mg.

In the case of “tritiated dihydrotestosterone [[^3H]-DHT]”, the Kd at wild type AR was 0.7 nM.
